US20100137313A1 (ASTRAZENECA AB, priority 2008, published 2010)

What follows are compounds tested against S. pneumoniae Topoisomerase IV ATPase (ParE) (Streptococcus pneumoniae serotype 4, UniProt Q59961) (assay: S. pneumoniae Topoisomerase IV ATPase inhibition). Settings: values marked * are an average of two or more data points, read-out: % Inh (13 μM) of S. pneumoniae Topoisomerase IV ATPase.
Chain of S. pneumoniae Topoisomerase IV ATPase (ParE) (Q59961 whole entry): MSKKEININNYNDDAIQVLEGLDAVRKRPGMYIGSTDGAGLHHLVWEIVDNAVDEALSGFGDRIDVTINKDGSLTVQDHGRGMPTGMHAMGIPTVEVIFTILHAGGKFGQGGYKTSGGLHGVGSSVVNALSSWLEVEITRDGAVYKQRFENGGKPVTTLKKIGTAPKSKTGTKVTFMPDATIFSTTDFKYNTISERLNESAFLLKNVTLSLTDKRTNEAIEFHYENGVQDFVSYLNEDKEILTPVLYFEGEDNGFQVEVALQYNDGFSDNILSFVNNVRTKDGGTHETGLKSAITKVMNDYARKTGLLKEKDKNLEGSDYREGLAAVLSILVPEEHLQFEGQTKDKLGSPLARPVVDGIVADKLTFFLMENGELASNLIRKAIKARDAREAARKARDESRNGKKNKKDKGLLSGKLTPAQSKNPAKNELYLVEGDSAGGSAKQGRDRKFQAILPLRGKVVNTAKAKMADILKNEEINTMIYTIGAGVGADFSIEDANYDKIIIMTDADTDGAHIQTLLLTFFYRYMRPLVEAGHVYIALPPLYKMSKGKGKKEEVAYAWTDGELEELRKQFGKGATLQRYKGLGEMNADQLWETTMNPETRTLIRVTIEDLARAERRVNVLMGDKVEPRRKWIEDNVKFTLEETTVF
Assay type: biochemical
Procedure, shortened: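 S. pneumoniae ParE (1.25 nM) ATPase with 160 μM ATP and 5 μg/ml sheared DNA in pH 8.0 Tris, Mg2+, DTT, Brij-35; phosphate detected by malachite green/molybdate at 650 nm. Normalised to 2% DMSO (0%) and 20 μM EDTA (100%); IC50 from 10 concentrations.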
Work on CS(=O)(=O)c1cc(Nc2ncc(-c3cccc(/C=C/C(=O)O)c3)c(-n3ccc(C(F)(F)F)n3)n2)ccc1F [Example 1115, (E)-3-(3-(2-(4-fluoro-3-(methylsulfonyl)phenylamino)-4-(3-(trifluoromethyl)-1H-pyrazol-1-yl)pyrimidin-5-yl)phenyl)acrylic acid] yielded an inhibition at 13 µM of 93%.
CCOC(=O)c1cncc(-c2cnc(Nc3ccc(F)c(Cl)c3)nc2NCCC(N)=O)c1 [Example 99, 5-[4-(2-Carbamoyl-ethylamino)-2-(3-chloro-4-fluoro-phenylamino)-pyrimidin-5-yl]-nicotinic acid ethyl ester] showed an inhibition at 13 µM of 82%.
Fc1ccc(Nc2ncc(-c3cncnc3)c(NCCN3CCOCC3)n2)cc1Cl [Example 43, N^2-(3-chloro-4-fluorophenyl)-N^4-(2-morpholin-4-ylethyl)-5-pyrimidin-5-ylpyrimidine-2,4-diamine] showed an inhibition at 13 µM of 74.3%.
In the case of COc1cc(Nc2ncc(-c3cnc(OC)c(C(=O)NS(=O)(=O)c4sc(NC(C)=O)nc4C)c3)c(-n3nc(C(F)(F)F)cc3C)n2)cc(OC)c1 [Example 834, N-{[2-(acetylamino)-4-methyl-1,3-thiazol-5-yl]sulfonyl}-5-{2-[(3,5-dimethoxyphenyl)amino]-4-[5-methyl-3-(trifluoromethyl)-1H-pyrazol-1-yl]pyrimidin-5-yl}-2-methoxypyridine-3-carboxamide], the inhibition at 13 µM is reported as 98%.
O=C(O)c1cncc(-c2cnc(Nc3ccc(F)c(Cl)c3)nc2-n2cnc(Cl)c2Cl)c1 [Example 327, 5-{2-[(3-chloro-4-fluorophenyl)amino]-4-(4,5-dichloro-1H-imidazol-1-yl)pyrimidin-5-yl}pyridine-3-carboxylic acid] was tested, and the inhibition at 13 µM was 99%.
CCOC(=O)c1cncc(-c2cnc(Nc3ccc(F)c(Cl)c3)nc2NCc2cnc(C)cn2)c1 [Example 115, ethyl 5-[2-[(3-chloro-4-fluorophenyl)amino]-4-[(5-methylpyrazin-2-yl)methylamino]pyrimidin-5-yl]pyridine-3-carboxylate] was tested, and the inhibition at 13 µM was 28.8%.
COc1ncc(-c2cnc(Nc3cc(C)cc(C)c3)nc2-n2nc(C(F)(F)F)cc2C)cc1C(=O)NS(=O)(=O)C(C)C [Example 827, 5-{2-[(3,5-dimethylphenyl)amino]-4-[5-methyl-3-(trifluoromethyl)-1H-pyrazol-1-yl]pyrimidin-5-yl}-2-methoxy-N-(propan-2-ylsulfonyl)pyridine-3-carboxamide] showed an inhibition at 13 µM of 100%.
Work on O=C(O)/C=C/c1cccc(-c2cnc(Nc3ccc(F)c(Cl)c3)nc2N2CCOCC2)c1 [Example 290, (E)-3-(3-(2-(3-chloro-4-fluorophenylamino)-4-morpholinopyrimidin-5-yl)phenyl)acrylic acid] yielded an inhibition at 13 µM of 80.5%.
Compound CN(C)CCCNc1nc(Nc2ccc(F)c(Cl)c2)ncc1-c1ccc(F)c(C#N)c1 [Example 13, 5-{2-(3-chloro-4-fluorophenylamino)-4-[3-(dimethylamino)propylamino]pyrimidin-5-yl}-2-fluorobenzonitrile] has an inhibition at 13 µM of 102%.
Compound Cc1cc(C#N)cc(Nc2ncc(-c3cncc(C(=O)O)c3)c(-n3ccc(C(F)(F)F)n3)n2)c1 [Example 784, 5-{2-[(3-cyano-5-methylphenyl)amino]-4-[3-(trifluoromethyl)-1H-pyrazol-1-yl]pyrimidin-5-yl}pyridine-3-carboxylic acid] has an inhibition at 13 µM of 70%.
CCN1CCC(CNc2nc(Nc3ccc(F)c(Cl)c3)ncc2-c2cnc(OC)nc2)CC1 [Example 468, N2-(3-chloro-4-fluorophenyl)-N4-((1-ethylpiperidin-4-yl)methyl)-2′-methoxy-5,5′-bipyrimidine-2,4-diamine] gave an inhibition at 13 µM of 80%.
Compound CNC(=O)c1cc(-c2cnc(Nc3cc(OC)cc(OC)c3)nc2-n2ccc(C(F)(F)F)n2)cnc1OC [Example 809, 5-{2-[(3,5-dimethoxyphenyl)amino]-4-[3-(trifluoromethyl)-1H-pyrazol-1-yl]pyrimidin-5-yl}-2-methoxy-N-methylpyridine-3-carboxamide] has an inhibition at 13 µM of 100%.
O=S1(=O)CCN(CCNc2nc(Nc3ccc(F)c(Cl)c3)ncc2-c2cncnc2)CC1 [Example 47, N^2-(3-chloro-4-fluorophenyl)-N^4-[2-(1,1-dioxo-1,4-thiazinan-4-yl)ethyl]-5-pyrimidin-5-ylpyrimidine-2,4-diamine] was tested, and the inhibition at 13 µM was 74.8%.
In the case of COc1cc(Nc2ncc(-c3cncc(C(=O)O)c3)c(-n3nc(C(F)F)cc3C)n2)cc(OC)c1 [Intermediate 1126, 5-(4-(3-(difluoromethyl)-5-methyl-1H-pyrazol-1-yl)-2-(3,5-dimethoxyphenylamino)pyrimidin-5-yl)nicotinic acid], the inhibition at 13 µM is reported as 100%.
In the case of O=C(O)c1cncc(-c2cnc(Nc3ccc(F)c(Cl)c3)nc2NCCc2nc3ccccc3[nH]2)c1 [Example 258, 5-(4-{[2-(1H-benzimidazol-2-yl)ethyl]amino}-2-[(3-chloro-4-fluorophenyl)amino]-pyrimidin-5-yl)pyridine-3-carboxylic acid], the inhibition at 13 µM is reported as 88%.
With COc1cc(Nc2ncc(-c3cnc(OCCCS(C)(=O)=O)c(C(=O)NS(C)(=O)=O)c3)c(-n3nc(C(F)(F)F)cc3C)n2)cc(OC)c1 [Example 970, 5-(2-(3,5-dimethoxyphenylamino)-4-(5-methyl-3-(trifluoromethyl)-1H-pyrazol-1-yl)pyrimidin-5-yl)-N-(methylsulfonyl)-2-(3-(methylsulfonyl)propoxy)nicotinamide] the inhibition at 13 µM was 100%.
With CC(=O)N1CCN(c2nc(Nc3ccc(F)c(Cl)c3)ncc2-c2ccc(C(=O)O)s2)CC1 [Example 982, 5-(4-(4-Acetylpiperazin-1-yl)-2-(3-chloro-4-fluorophenylamino)pyrimidin-5-yl)thiophene-2-carboxylic acid] the inhibition at 13 µM was 100%.
Fc1ccc(Nc2ncc(-c3cncnc3)c(NCCCN3CCOCC3)n2)cc1Cl [Example 49, N^2-(3-chloro-4-fluorophenyl)-N^4-(3-morpholin-4-ylpropyl)-5-pyrimidin-5-ylpyrimidine-2,4-diamine] gave an inhibition at 13 µM of 85.6%.
With O=C(O)c1coc2ccc(-c3cnc(Nc4ccc(F)c(Cl)c4)nc3N3CCOCC3)cc2c1=O [Example 459, 6-(2-(3-chloro-4-fluorophenylamino)-4-morpholinopyrimidin-5-yl)-4-oxo-4H-chromene-3-carboxylic acid] the inhibition at 13 µM was 100%.
In the case of Cc1nccn1-c1nc(Nc2ccc(F)c(Cl)c2)ncc1-c1cccc(/C=C/C(=O)O)c1 [Example 314, (2E)-3-(3-{2-[(3-chloro-4-fluorophenyl)amino]-4-(2-methyl-1H-imidazol-1-yl)pyrimidin-5-yl}phenyl)prop-2-enoic acid], the inhibition at 13 µM is reported as 83.4%.
Compound Cc1cc(C(F)(F)F)nn1-c1nc(Nc2ccc(F)c(Cl)c2)ncc1-c1cnc(OCCN2CCOCC2)c(C(=O)O)c1 [Example 1141, 5-(2-(3-chloro-4-fluorophenylamino)-4-(5-methyl-3-(trifluoromethyl)-1H-pyrazol-1-yl)pyrimidin-5-yl)-2-(2-morpholinoethoxy)nicotinic acid] has an inhibition at 13 µM of 100%.
Compound O=C(O)/C=C/c1cccc(-c2cnc(Nc3ccc(F)c([N+](=O)[O-])c3)nc2N2CCOCC2)c1 [Example 448] has an inhibition at 13 µM of 82%.
Work on NC(=O)CCNc1nc(Nc2ccc(F)c(Cl)c2)ncc1-c1cncnc1 [Example 42, 3-[[2-[(3-chloro-4-fluorophenyl)amino]-5-pyrimidin-5-ylpyrimidin-4-yl]amino]propanamide] yielded an inhibition at 13 µM of 77.5%.
Compound COCCn1cc(-c2cnc(Nc3cc(OC)cc(OC)c3)nc2-n2ccc(C(F)(F)F)n2)cc(C(=O)O)c1=O [Example 1159] has an inhibition at 13 µM of 100%.
Work on COc1cc(Nc2ncc(-c3cccc(/C=C/C(=O)O)c3)c(-n3nc(C(F)(F)F)cc3C)n2)cc(OC)c1 [Example 616, (2E)-3-(3-{2-[(3,5-dimethoxyphenyl)amino]-4-[5-methyl-3-(trifluoromethyl)-1H-pyrazol-1-yl]pyrimidin-5-yl}phenyl)prop-2-enoic acid] yielded an inhibition at 13 µM of 99%.
In the case of COCCCNc1nc(Nc2ccc(F)c(Cl)c2)ncc1-c1ccc2sc(C(=O)OC)cc2c1 [Example 180, methyl 5-(2-(3-chloro-4-fluorophenylamino)-4-(3-methoxypropylamino)-pyrimidin-5-yl)benzo[b]thiopene-2-carboxylate], the inhibition at 13 µM is reported as -56.9%.
Fc1ccc(Nc2ncc(-c3cncnc3)c(N3CCOCC3)n2)cc1F [Example 352] showed an inhibition at 13 µM of 26.7%.
Compound NC(=O)c1cncc(-c2cnc(Nc3ccc(F)c(Cl)c3)nc2-n2ccc(C(F)(F)F)n2)c1 [Example 1124, 5-[2-[(3-chloro-4-fluorophenyl)amino]-4-[3-(trifluoromethyl)pyrazol-1-yl]pyrimidin-5-yl]pyridine-3-carboxamide] has an inhibition at 13 µM of 42%.
With Cc1cc(C(F)(F)F)nn1-c1nc(Nc2ccc(F)c(Cl)c2)ncc1-c1cncc(C(=O)NCCNS(C)(=O)=O)c1 [Example 925, 5-(2-(3-chloro-4-fluorophenylamino)-4-(5-methyl-3-(trifluoromethyl)-1H-pyrazol-1-yl)pyrimidin-5-yl)-N-(2-(methylsulfonamido)ethyl)nictinamide] the inhibition at 13 µM was 88%.
Compound O=C(O)c1cncc(-c2cnc(Nc3cc(F)cc(F)c3)nc2-n2ccc(C(F)(F)F)n2)c1 [Example 639, 5-{2-[(3,5-difluorophenyl)amino]-4-[3-(trifluoromethyl)-1H-pyrazol-1-yl]pyrimidin-5-yl}pyridine-3-carboxylic acid] has an inhibition at 13 µM of 100%.
Compound O=C(O)/C=C/c1cccc(-c2cnc(Nc3ccc(F)c(Cl)c3)nc2-n2cccc2)c1 [Example 315, (2E)-3-(3-{2-[(3-chloro-4-fluorophenyl)amino]-4-(1H-pyrrol-1-yl)pyrimidin-5-yl}phenyl)prop-2-enoic acid] has an inhibition at 13 µM of 62.8%.
Compound COc1cc(Nc2ncc(-c3cnc(OC)c(C(=O)NS(=O)(=O)C(C)C)c3)c(-n3ccc(C(F)(F)F)n3)n2)cc(OC)c1 [Example 818, 5-{2-[(3,5-dimethoxyphenyl)amino]-4-[3-(trifluoromethyl)-1H-pyrazol-1-yl]pyrimidin-5-yl}-2-methoxy-N-(propan-2-ylsulfonyl)pyridine-3-carboxamide] has an inhibition at 13 µM of 100%.
